Patent US5532267A, “Amidinonaphthyl furancarboxylate derivatives and acid addition salts therof” (Torii & Co., Ltd., priority 1992, dated 1996)
Where a name gives a salt, the structure may show the parent alone. Read-outs that look alike come from different tables or passages of the source.

Legend:
Format in all cases: biochemical
C1s = molecular target: T1, C1s (Homo sapiens, UniProt P09871); test: anti-complement (anti-C1 esterase) activity, C1s hydrolysis of ATEE (acetyltyrosine ethyl ester); details: for IC50: hydrolysis of ATEE, read-out: Cls: molar concentration inhibiting 50% of C1s activity (IC50)
T1 sequence (P09871 16-688): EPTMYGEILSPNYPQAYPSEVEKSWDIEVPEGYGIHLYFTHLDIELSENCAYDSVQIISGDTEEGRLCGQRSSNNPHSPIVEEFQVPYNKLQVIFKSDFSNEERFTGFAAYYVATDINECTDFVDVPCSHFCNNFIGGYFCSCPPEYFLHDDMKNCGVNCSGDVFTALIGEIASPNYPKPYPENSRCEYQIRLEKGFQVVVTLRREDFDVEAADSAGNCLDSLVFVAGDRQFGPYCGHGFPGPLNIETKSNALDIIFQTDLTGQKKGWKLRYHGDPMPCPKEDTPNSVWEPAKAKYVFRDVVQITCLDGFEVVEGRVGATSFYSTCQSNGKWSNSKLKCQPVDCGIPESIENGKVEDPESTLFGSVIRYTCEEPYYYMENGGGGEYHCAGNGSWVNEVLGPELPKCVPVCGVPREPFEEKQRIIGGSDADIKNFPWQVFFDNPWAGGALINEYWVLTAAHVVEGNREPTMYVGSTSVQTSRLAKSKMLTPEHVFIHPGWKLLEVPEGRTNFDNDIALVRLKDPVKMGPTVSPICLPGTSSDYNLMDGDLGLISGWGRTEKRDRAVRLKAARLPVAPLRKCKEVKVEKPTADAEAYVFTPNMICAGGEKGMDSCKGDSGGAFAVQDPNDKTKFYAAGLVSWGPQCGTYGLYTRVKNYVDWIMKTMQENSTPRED
Procedure: The anti-C1 esterase (C1r, C1s) activity was determined according to the method of Okamura et al. (Biochem. Biophys. Acta (1973), volume 295, pages 252-257). […] The values for C1s represent molar concentrations (IC50) of test compounds which inhibit 50% of the activity of C1s to hydrolyze ATEE (acetyltyrosine ethyl ester).

trypsin = molecular target: T2, trypsin (Bos taurus, UniProt P00760); test: anti-trypsin activity, hydrolysis of TAME (tosylarginine methyl ester)
T2 sequence (P00760 24-246): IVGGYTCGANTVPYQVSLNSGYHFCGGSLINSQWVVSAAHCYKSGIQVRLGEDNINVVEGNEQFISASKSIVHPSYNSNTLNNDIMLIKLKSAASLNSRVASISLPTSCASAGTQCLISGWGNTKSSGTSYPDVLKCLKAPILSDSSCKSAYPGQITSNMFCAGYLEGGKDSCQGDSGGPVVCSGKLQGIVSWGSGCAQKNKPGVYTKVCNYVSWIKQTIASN

plasmin = plasmin (Homo sapiens, UniProt P00747); test: anti-plasmin activity, hydrolysis of TAME (tosylarginine methyl ester)
Procedure: (§1) The values in Table 1 represent molar concentrations (IC50) of test compounds which inhibit 50% of the activity of each enzyme to hydrolyze TAME (tosylarginine methyl ester). The anti-trypsin, anti-plasmin, anti-kallikrein and anti-thrombin activities were determined according to the method of Muramatsu et al. (J. Biochem. (1965), volume 58, page 214).

kallikrein = test: anti-kallikrein activity, hydrolysis of TAME (tosylarginine methyl ester); details: for IC50: hydrolysis of TAME, read-out: Kal: molar concentration inhibiting 50% of enzyme activity (IC50); for Kal: percentage inhibition: at a concentration of 1 × 10^-5 M
Procedure: as §1

C1r = molecular target: T3, C1r (Homo sapiens, UniProt P00736); test: anti-complement (anti-C1 esterase) activity, C1r hydrolysis of AAME (acetyl-arginine methyl ester); details: for inhibition at 10 µM: read-out: Clr: percentage inhibition
T3 sequence (P00736 18-705): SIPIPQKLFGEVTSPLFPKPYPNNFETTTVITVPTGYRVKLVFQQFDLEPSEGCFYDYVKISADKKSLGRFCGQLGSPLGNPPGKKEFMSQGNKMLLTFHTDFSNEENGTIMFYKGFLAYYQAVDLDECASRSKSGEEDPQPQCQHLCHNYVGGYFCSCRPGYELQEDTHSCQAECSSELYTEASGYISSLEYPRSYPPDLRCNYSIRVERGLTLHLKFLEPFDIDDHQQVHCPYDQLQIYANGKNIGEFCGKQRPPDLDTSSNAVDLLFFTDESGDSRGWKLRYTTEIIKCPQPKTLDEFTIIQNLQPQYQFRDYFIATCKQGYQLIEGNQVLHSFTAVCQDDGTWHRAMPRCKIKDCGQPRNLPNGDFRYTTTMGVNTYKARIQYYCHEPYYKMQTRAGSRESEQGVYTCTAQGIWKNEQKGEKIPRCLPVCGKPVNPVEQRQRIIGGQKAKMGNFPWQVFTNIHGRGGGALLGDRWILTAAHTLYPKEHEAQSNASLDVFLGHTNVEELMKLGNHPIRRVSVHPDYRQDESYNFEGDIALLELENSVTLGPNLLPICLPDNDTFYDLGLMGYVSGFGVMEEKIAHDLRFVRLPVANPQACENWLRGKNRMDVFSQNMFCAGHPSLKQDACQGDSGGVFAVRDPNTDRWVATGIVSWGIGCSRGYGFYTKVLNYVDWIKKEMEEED

thrombin = thrombin (Homo sapiens, UniProt P00734); test: anti-thrombin activity, hydrolysis of TAME (tosylarginine methyl ester); details: for IC50: hydrolysis of TAME, read-out: Thr: molar concentration inhibiting 50% of enzyme activity (IC50); for inhibition at 10 µM: at a concentration of 1 × 10^-5 M, read-out: Thr: percentage inhibition
Procedure: as §1

[1] = hydrolysis of TAME, read-out: Pla: molar concentration inhibiting 50% of enzyme activity (IC50)
[2] = hydrolysis of AAME, read-out: Clr: molar concentration inhibiting 50% of C1r activity (IC50)
[3] = hydrolysis of TAME, read-out: Try: molar concentration inhibiting 50% of enzyme activity (IC50)

plasmin, sequence (P00747 581-810 limits assumed, species assumed): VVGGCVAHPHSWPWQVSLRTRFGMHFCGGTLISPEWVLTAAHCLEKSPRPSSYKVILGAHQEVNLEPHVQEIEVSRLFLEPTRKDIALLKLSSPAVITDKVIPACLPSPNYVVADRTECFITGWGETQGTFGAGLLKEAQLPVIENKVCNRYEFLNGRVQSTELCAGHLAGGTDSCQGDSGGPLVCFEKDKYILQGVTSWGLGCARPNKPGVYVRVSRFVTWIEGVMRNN
plasmin, sequence (P00747 97-580 partner limits assumed, species assumed): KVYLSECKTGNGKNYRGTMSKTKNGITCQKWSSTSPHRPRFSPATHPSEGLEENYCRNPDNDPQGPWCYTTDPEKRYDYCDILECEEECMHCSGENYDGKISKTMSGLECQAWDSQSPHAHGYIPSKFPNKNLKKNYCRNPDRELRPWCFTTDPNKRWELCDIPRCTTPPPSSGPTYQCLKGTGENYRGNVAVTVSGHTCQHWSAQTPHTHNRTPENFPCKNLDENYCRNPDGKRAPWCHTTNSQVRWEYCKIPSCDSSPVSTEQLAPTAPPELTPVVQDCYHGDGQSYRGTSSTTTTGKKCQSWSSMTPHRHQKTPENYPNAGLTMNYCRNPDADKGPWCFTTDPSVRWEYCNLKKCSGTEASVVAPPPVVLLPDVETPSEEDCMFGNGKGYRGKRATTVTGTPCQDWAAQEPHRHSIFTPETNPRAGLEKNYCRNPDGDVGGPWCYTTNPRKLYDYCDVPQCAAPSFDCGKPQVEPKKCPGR

SMILES	IC50 (C1s) [nM]	IC50 (plasmin; [1]) [nM]	IC50 (kallikrein) [nM]	IC50 (C1r; [2]) [nM]	IC50 (thrombin) [nM]	IC50 (trypsin; [3]) [nM]	IC50 (C1r) [nM]	IC50 (trypsin) [nM]	inhibition at 10 µM (C1s; read-out: Cls: percentage inhibition) [%]	Kal: percentage inhibition (kallikrein) [%]	inhibition at 10 µM (C1r; at a concentration of 1 × 10^-5 M) [%]	inhibition at 10 µM (thrombin) [%]	inhibition at 10 µM (trypsin; read-out: Try: percentage inhibition) [%]	inhibition at 10 µM (C1r) [%]	IC50 (plasmin) [nM]
CC(C)(C)OC(=O)C=Cc1ccc(C(=O)NCc2ccc(C(=O)Oc3ccc4cc(C(=N)N)ccc4c3)o2)cc1 [Example 1, 6-Amidino-2-naphthyl 5-[4-(2-t-butoxycarbonylvinyl)benzoylaminomethyl]furan-2-carboxylate hydrobromide]	270	150	470	340	350			350							
Cl.N=C(N)c1ccc2cc(OC(=O)c3ccc(CNC(=O)c4ccc(C=CC(=O)O)cc4)o3)ccc2c1 [Example 2, 6-Amidino-2-naphthyl 5-[4-(2-carboxyvinyl)benzoylaminomethyl]furan-2-carboxylate hydrochloride]		4800				8400			17	46	29	47			
Cl.N=C(N)c1ccc2cc(OC(=O)c3ccc(CNC(=O)c4ccc(C(=O)O)cc4)o3)ccc2c1 [Example 3, 6-Amidino-2-naphthyl 5-(4-carboxybenzoylaminomethyl)furan-2-carboxylate hydrochloride]	3400	8600								33		26	48	34	
COC(=O)Cc1ccc(C(=O)NCc2ccc(C(=O)Oc3ccc4cc(C(=N)N)ccc4c3)o2)cc1 [Example 4, 6-Amidino-2-naphthyl 5-(4-methoxycarbonylmethylbenzoylaminomethyl)furan-2-carboxylate hydrochloride]	160	72	210	64	70	340									
CC(C)(C)OC(=O)c1ccc(CC(=O)NCc2ccc(C(=O)Oc3ccc4cc(C(=N)N)ccc4c3)o2)cc1 [Example 5, 6-Amidino-2-naphthyl 5-(4-t-butoxycarbonylphenylacetylaminomethyl)furan-2-carboxylate hydrochloride]	360	100	300	73	180	340									
CC(C)(C)OC(=O)CC(=O)NCc1ccc(C(=O)Oc2ccc3cc(C(=N)N)ccc3c2)o1 [Example 15, 6-Amidino-2-naphthyl 5-t-butoxymalonylaminomethylfuran-2-carboxylate hydrochloride]	230	310	320	840	400	710									
CC(C)(C)OC(=O)CCC(=O)NCc1ccc(C(=O)Oc2ccc3cc(C(=N)N)ccc3c2)o1 [Example 18, 6-amidino-2-naphthyl 5-(3-t-butoxycarbonylpropionylaminomethyl)furan-2-carboxylate hydrochloride]	190		210	340	350	400									190
CC(C)(C)OC(=O)CCCC(=O)NCc1ccc(C(=O)Oc2ccc3cc(C(=N)N)ccc3c2)o1 [Example 19, 6-Amidino-2-naphthyl 5-(4-t-butoxycarbonyl-butyrylaminomethyl)furan-2-carboxylate hydrochloride]	720	170	250	1800	360	250									
CC(C)(C)OC(=O)CCC(NC(=N)N)C(=O)NCc1ccc(C(=O)Oc2ccc3cc(C(=N)N)ccc3c2)o1 (stereo not drawn) [Example 20, 6-amidino-2-naphthyl 5-(4-t-butoxycarbonyl-2-guanidinobutyrylaminomethyl)furan-2-carboxylate hydrochloride hydrobromide]	390	180	130	380	460	2000									

Now from value to compound, other results behind:

IC50 (C1s) [nM]	IC50 (plasmin; [1]) [nM]	IC50 (kallikrein) [nM]	IC50 (C1r; [2]) [nM]	IC50 (thrombin) [nM]	IC50 (trypsin; [3]) [nM]	IC50 (C1r) [nM]	SMILES	IC50 (trypsin) [nM]	inhibition at 10 µM (C1s; read-out: Cls: percentage inhibition) [%]	Kal: percentage inhibition (kallikrein) [%]	inhibition at 10 µM (C1r; at a concentration of 1 × 10^-5 M) [%]	inhibition at 10 µM (thrombin) [%]	inhibition at 10 µM (trypsin; read-out: Try: percentage inhibition) [%]	inhibition at 10 µM (C1r) [%]	IC50 (plasmin) [nM]
460	300	1500	740	400	1800		N=C(N)c1ccc2cc(OC(=O)c3ccc(CNC(=O)c4ccc(CC(=O)O)cc4)o3)ccc2c1 [Example 7, 6-Amidino-2-naphthyl 5-(4-carboxymethylbenzoylaminomethyl)furan-2-carboxylate hydrochloride]								
2000	1100	2700	830	1400	2100		N=C(N)c1ccc2cc(OC(=O)c3ccc(CNC(=O)C=Cc4ccc(C(=O)O)cc4)o3)ccc2c1 [Example 8, 6-Amidino-2-naphthyl 5-(4-carboxycinnamoylaminomethyl)furan-2-carboxylate hydrochloride]								
2300	500	6000	2800	650	4800		N=C(N)c1ccc2cc(OC(=O)c3ccc(CNC(=O)c4ccc(CCC(=O)O)cc4)o3)ccc2c1 [Example 9, 6-Amidino-2-naphthyl 5-[4-(2-carboxyethyl)benzoylaminomethyl]furan-2-carboxylate hydrochloride]								
26	150	250		1600	600	160	N=C(N)c1ccc2cc(OC(=O)c3ccc(CNC(=O)[C@H]4CC[C@@H](C(=O)O)CC4)o3)ccc2c1 [Example 10, 6-Amidino-2-naphthyl 5-(cis-4-carboxy-1-cyclohexanoylaminomethyl)furan-2-carboxylate hydrochloride]								
210	270	770	2800	600	480		N=C(N)c1ccc2cc(OC(=O)c3ccc(CNC(=O)/C=C\C(=O)O)o3)ccc2c1 [Example 12, 6-Amidino-2-naphthyl 5-(cis-2-carboxyvinyl)carbonylaminomethylfuran-2-carboxylate methanesulfonate]								
350	240	3800	6900	1300	340		N=C(N)c1ccc2cc(OC(=O)c3ccc(CNC(=O)C(=O)O)o3)ccc2c1 [Example 16, 6-Amidino-2-naphthyl 5-oxaloaminomethylfuran-2-carboxylate hydrochloride]								
180	330	700	540	960	310		N=C(N)c1ccc2cc(OC(=O)c3ccc(CNC(=O)CCC(=O)O)o3)ccc2c1 [Example 21, 6-amidino-2-naphthyl 5-(3-carboxypropionylaminomethyl)furan-2-carboxylate hydrochloride]								
